Test results taken from PubChem BioAssay AID2060624 (Molecular Pharmacology Branch, DTP, NCI, 2025).
Values joined by “and” are separate entries in the source; they are usually repeats but may differ in a detail not shown here. Identical values can stand only once.

Test system: 217524-143-R1-J4-PDC spheroids with HUVEC/MSC, viability
Experiment: Anticancer human tumor 217524-143-R1-J4-PDC patient-derived pancreatic carcinoma cell line growth inhibition [CLK]
Conditions: for viability, T/C: stronger effect = lower value
Text: A high-throughput screen of multi-cell type tumor spheroids was designed to identify active combinations of […] and targeted small molecules. Complex spheroids include a stromal component modeled by human endothelial cells (HUVEC) and fibroblasts modeled by human mesenchymal stem cells (MSCs). The concentration ranges selected for each drug and investigational agent were based upon clinically achievable concentrations if the clinical Cmax of the agent was known.
Compounds. The drugs and investigational agents: cirtuvivint (SM08502; NSC835563), CC-671 (NSC850746), vemurafenib (NSC761431), tapotoclax (NSC804041), sotorasib (NSC818433), adagrasib (NSC831453), MRTX-1133 (NSC836407), BAY2416964 (NSC825713), copanlisib (NSC816437), inavolisib (NSC800729), abemaciclib (NSC768073), osimertinib (NSC779217), entinostat (NSC756642), eltanexor (KPT-8602, NSC794443), venetoclax (NSC766270), ceralasertib (NSC777638), bortezomib (NSC756655), olaparib (NSC753686), talazoparib (NSC767125), alisertib (NSC759677), peposertib (NSC802822), gemcitabine (NSC613327), 5-fluorouracil (NSC19893), SN-38 (NSC673596), oxaliplatin (NSC266046), paclitaxel (NSC125973), and doxorubicin (NSC123127), were obtained from the National Cancer Institute (NCI) Developmental Therapeutics Program Chemical Repository. The FDA-approved anticancer drug set is available from the Developmental Therapeutics Program at https://dtp.cancer.gov/organization/dscb/obtaining/available plates.htm. […] The stock solutions were prepared in dimethyl sulfoxide (DMSO, Sigma-Aldrich, St. Louis, MO, cat. D2650), except for the platinum complexes which were prepared in saline (Quality Biological, Gaithersburg, MD, cat. 114-055-101), at 800-fold the tested concentration and stored at -70 degrees C prior to their use. All drugs and investigational agents were tested over a range starting from a high concentration at or near the clinical Cmax and decreasing in half-log increments. If the clinical Cmax for an agent had not been determined, the highest concentration tested was 10 microM.
Cell Culture. All cells were maintained in an incubator at 37 degrees C and 5% CO2 with 95% humidity. The PDC lines were cultured according to standard operating procedures established by the NCI PDMR. Briefly, all PDCs were thawed and cultured in Matrigel-coated flasks prepared with a working solution of 1X Ham's F-12 nutrient mix, without supplementation (Invitrogen, Waltham, MA, cat. 11765054), 100 U/mL penicillin-streptomycin (Invitrogen, cat. 15140122), and 2.5% Matrigel (Corning Inc., Corning, NY, cat. 354248) for the first three passages. The 947758-054-R-J2-PDC line was cultured in 6B/Colon 1A media, which includes advanced DMEM/F-12 (Thermo Fisher Scientific, cat. 12634028), 10 mM HEPES (Thermo Fisher Scientific, cat. 15630080), 1X GlutaMAX supplement (Thermo Fisher Scientific, cat. 35050061), 0.1 mg/mL primocin (InvivoGen, cat. ant-pm-2), 10% defined fetal bovine serum, heat inactivated (HyClone Laboratories Inc., cat. SH30070.03HI), 1.25 mM N-Acetyl-L-cysteine (Sigma-Aldrich, cat. A9165), 10 mM nicotinamide (Sigma-Aldrich, cat. N0636), 1X B-27 supplement (Thermo Fisher Scientific, cat. 17504044), 1X N-2 supplement (Thermo Fisher Scientific, cat. 17502048), and 10 microM Y-27632 dihydrochloride (Tocris Bioscience, cat. 1254). The 876862-298-R-J1-PDC was cultured in 6E media, which includes all 6B/Colon 1A media components plus 50% L-WRN conditioned media (ATCC, cat. CRL-3276), 50 ng/mL recombinant human EGF recombinant protein (hEGF; Thermo Fisher Scientific, cat. PHG0311), 10 ng/mL recombinant human fibroblast growth factor 10 (hGFG-10; PeproTech, cat. 100-26), 1 ng/mL recombinant human fibroblast growth factor 2 (hFGF-2; PeproTech, cat. 100-18B), and 1 µM prostaglandin E2 (PGE2; Tocris, cat. 2296). The 227483-062-R1-J1-PDC line was cultured in Panc media, containing all 6E components except hFGF-2, with the addition of 500 nM SB-431542 (Selleckchem, cat. S1067) and 10 nM gastrin (Tocris, cat. 3006). […]
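Also: spheroids exposed to agents for seven days before reading.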
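For viability, T/C in this document: 100% = DMSO vehicle control viability.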

Compound	viability, T/C (compound 0.0316 µM)	viability, T/C (compound 0.1 µM)	viability, T/C (compound 0.316 µM)	viability, T/C (compound 1 µM)	viability, T/C (compound 3.16 µM)	viability, T/C (compound 10 µM)	IC50 (curve of compound)	viability, T/C (compound 0.000949 µM)	viability, T/C (compound 0.003 µM)	viability, T/C (compound 0.00949 µM)	viability, T/C (compound 0.03 µM)	viability, T/C (compound 0.0949 µM)	viability, T/C (compound 0.3 µM)	viability, T/C (compound 0.00316 µM)	viability, T/C (compound 0.01 µM)	IC50 (compound alone, run of 08/01/2023)	viability, T/C (compound 0.000316 µM)	viability, T/C (compound 0.001 µM)	viability, T/C (compound 0.949 µM)	viability, T/C (compound 3 µM)
C#Cc1c(F)ccc2cc(O)cc(-c3ncc4c(N5CC6CCC(C5)N6)nc(OCC56CCCN5CC(F)C6)nc4c3F)c12 (centres undefined)	101% and 98%	81.7% and 90.2%	88.5% and 86.4%	85% and 85.9%	86.7% and 68%	59% and 77.1%	> 10000 nM	–	–	–	–	–	–	–	–	–	–	–	–	–
C=C(F)C(=O)N1CCN(c2nc(OCC3CCCN3C)nc3c2CCN(c2cccc4cccc(Cl)c24)C3)CC1CC#N (centres undefined)	91.8% and 102%	113% and 96.7%	109% and 106%	73.5% and 108%	85.6% and 87.4%	3.02% and 4.54%	4870 nM and 5320 nM	–	–	–	–	–	–	–	–	–	–	–	–	–
C=CC(=O)N1CCN(c2nc(=O)n(-c3c(C)ccnc3C(C)C)c3nc(-c4c(O)cccc4F)c(F)cc23)C(C)C1 (centres undefined)	98.7% and 109%	72.6% and 98%	78.3% and 113%	96.4% and 111%	126% and 111%	103%	> 10000 nM	–	–	–	–	–	–	–	–	–	–	–	–	–
C=CC(=O)Nc1cc(Nc2nccc(-c3cn(C)c4ccccc34)n2)c(OC)cc1N(C)CCN(C)C	–	–	–	–	–	–	137 nM and 78.7 nM	106% and 100%	83.4% and 96.4%	100% and 92.1%	90.3% and 81.1%	57.1% and 43.5%	35.3% and 33.1%	–	–	–	–	–	–	–
CC(=O)O[C@H]1C(=O)[C@@]2(C)[C@H]([C@H](OC(=O)c3ccccc3)[C@]3(O)C[C@H](OC(=O)[C@H](O)[C@@H](NC(=O)c4ccccc4)c4ccccc4)C(C)=C1C3(C)C)[C@]1(OC(C)=O)CO[C@@H]1C[C@@H]2O	12.7% and 12%	12.4% and 12.9%	10.1% and 12.3%	9.86% and 10.8%	13.6% and 14.1%	16% and 16.4%	< 31.6 nM	–	–	–	–	–	–	–	–	–	–	–	–	–
CC(C)CC(NC(=O)C(Cc1ccccc1)NC(=O)c1cnccn1)B(O)O (centres undefined)	–	–	–	–	–	–	4.99 nM and 4.09 nM	107% and 103%	68% and 61.1%	27% and 19.8%	10.3% and 6.71%	6.69% and 3.3%	2.39% and 1.64%	–	–	–	–	–	–	–
CC(CO)NC(=O)c1cc(-c2ccc(Cl)cc2)nn(-c2cnn(C)c2)c1=O (centres undefined)	110% and 92.8%	94.5% and 72.6%	91.5% and 92.9%	89.1% and 89.9%	106% and 95.8%	78.1% and 85.5%	> 10000 nM	–	–	–	–	–	–	–	–	–	–	–	–	–
CC(Nc1ccc2c(c1)OCCn1cc(N3C(=O)OCC3C(F)F)nc1-2)C(N)=O (centres undefined)	77.3% and 57.6%	36% and 29.8%	16.3% and 11.6%	8.54% and 7.09%	6.58% and 6.55%	4.15% and 4.2%	67.6 nM and 43.3 nM	–	–	–	–	–	–	–	–	–	–	–	–	–
CC1(C)CCC(CN2CCN(c3ccc(C(=O)NS(=O)(=O)c4ccc(NCC5CCOCC5)c([N+](=O)[O-])c4)c(Oc4cnc5[nH]ccc5c4)c3)CC2)=C(c2ccc(Cl)cc2)C1	121% and 110%	89.1% and 75.1%	99.5% and 103%	89.8% and 80.3%	101% and 86.2%	10.7% and 79.9%	6030 nM and > 10000 nM	–	–	–	–	–	–	–	–	–	–	–	–	–
CC1COCCN1c1cc(C2(S(C)(=N)=O)CC2)nc(-c2ccnc3[nH]ccc23)n1 (centres undefined)	102% and 109%	94.1% and 75.7%	87.9% and 82.8%	89.5% and 69.8%	35.7% and 35%	21.4% and 20.1%	2330 nM and 1890 nM	–	–	–	–	–	–	–	–	–	–	–	–	–
CCCS(=O)(=O)Nc1ccc(F)c(C(=O)c2c[nH]c3ncc(-c4ccc(Cl)cc4)cc23)c1F	111% and 94.5%	110% and 95%	109% and 117%	138% and 127%	144% and 134%	59.8% and 57%	> 10000 nM	–	–	–	–	–	–	–	–	–	–	–	–	–
CCN1CCN(Cc2ccc(Nc3ncc(F)c(-c4cc(F)c5nc(C)n(C(C)C)c5c4)n3)nc2)CC1	90.5% and 66.1%	61.9% and 40.7%	40.3% and 33.4%	44% and 39.1%	–	–	200 nM and 64 nM	–	–	–	–	–	–	104% and 92.1%	74.8% and 70.1%	–	–	–	–	–
CCc1c2c(nc3ccc(O)cc13)-c1cc3c(c(=O)n1C2)COC(=O)[C@]3(O)CC	33.3% and 33.9%	26.8% and 28.3%	20.4% and 16.5%	5.13% and 2.88%	–	–	3.31 nM and 4.7 nM	–	–	–	–	–	–	51.5% and 55.3%	42% and 40.3%	–	–	–	–	–
CNC(=O)c1ccc(Nc2nc(OC3CCCC3)c3c(-c4ccc5nc(C)oc5c4)c[nH]c3n2)c(OC)c1	91.6% [middle of 12 runs]	46.5% [middle of 12 runs]	37.7% [middle of 12 runs]	31.2% [middle of 12 runs]	27.4% [middle of 12 runs]	27.3% [middle of 12 runs]	–	–	–	–	–	–	–	–	–	96.4 nM [middle of 12 runs]	–	–	–	–
COC1C=CCC(C)C(C)S(=O)(=O)NC(=O)c2ccc3c(c2)N(CC2CCC21)CC1(CCCc2cc(Cl)ccc21)CO3 (centres undefined)	93.3% and 85.4%	112% and 93.6%	112%	123% and 108%	125% and 110%	26.2% and 28.4%	7310 nM and 7140 nM	–	–	–	–	–	–	–	–	–	–	–	–	–
COc1c(OCCCN2CCOCC2)ccc2c3n(c(=NC(=O)c4cnc(N)nc4)nc12)CCN3	16.1% and 11.7%	5% and 4.43%	2.63% and 3%	2.47% and 2.32%	–	–	7.04 nM and 5.59 nM	–	–	–	–	–	–	74.2% and 71.6%	39.2% and 27.7%	–	–	–	–	–
Cn1ncnc1[C@H]1c2n[nH]c(=O)c3cc(F)cc(c23)N[C@@H]1c1ccc(F)cc1	113% and 106%	102% and 83.5%	–	–	–	–	> 100 nM	–	–	–	–	–	–	103% and 102%	85.5% and 93.6%	–	101% and 96.4%	93.3% and 90.1%	–	–
NC(=O)C(=Cn1cnc(-c2cc(C(F)(F)F)cc(C(F)(F)F)c2)n1)c1cncnc1	–	–	–	–	–	–	29 nM and 18.2 nM	–	–	73.8% and 67.8%	49.3% and 36.5%	27.8% and 21.1%	21.7% and 27.9%	–	–	–	–	–	25.6% and 28.4%	23.2% and 20.4%
Nc1ccccc1NC(=O)c1ccc(CNC(=O)OCc2cccnc2)cc1	112% and 117%	102% and 93.9%	97.4% and 104%	89.9% and 98.1%	61.6% and 70.6%	31.1% and 34.7%	5090 nM and 6150 nM	–	–	–	–	–	–	–	–	–	–	–	–	–
Nc1ccn(C2OC(CO)C(O)C2(F)F)c(=O)n1 (centres undefined)	53.5% and 66.5%	28.6% and 26%	22.5% and 22.4%	24.3% and 26%	25.1% and 29.9%	29.4% and 29.8%	37.1 nM and 51.3 nM	–	–	–	–	–	–	–	–	–	–	–	–	–
O=C(c1cc(Cc2n[nH]c(=O)c3ccccc23)ccc1F)N1CCN(C(=O)C2CC2)CC1	100% and 92.1%	81.1% and 72%	103% and 91.9%	89.3% and 89.4%	96.2% and 123%	86.3% and 79.1%	> 10000 nM	–	–	–	–	–	–	–	–	–	–	–	–	–
O=c1[nH]cc(F)c(=O)[nH]1	94.6% and 72.3%	93.9% and 80.7%	56.5% and 62.8%	38% and 36.6%	36.2% and 32.5%	29.7% and 25.7%	457 nM and 563 nM	–	–	–	–	–	–	–	–	–	–	–	–	–
